Experimental data: patent publication US20150057246A1, “SILYL-CONTAINING HETEROCYCLIC COMPOUNDS AND METHODS OF USE THEREOF FOR THE TREATMENT OF VIRAL DISEASES” (priority 2012, published 2015)
Where two headings read alike, the source gives them in different places.

Experiments:
[1] = tested on: HCV 1a replicon; test: Cell-based HCV replicon assay (TaqMan), genotype 1a replicon; details: HCV genotype 1a replicon cells, replicon RNA by real time PCR, day 3, EC90 = concentration for ΔCT=3.2 over baseline
Protocol: (§1) Measurement of inhibition by compounds of the present invention was performed using the HCV replicon system. Several different replicons encoding different HCV genotypes or mutations were used. In addition, potency measurements were made using different formats of the replicon assay, including different ways of measurements and different plating formats. See Jan M. Vrolijk et al., A replicons-based bioassay for the measurement of interferons in patients with chronic hepatitis C, 110 J. VIROLOGICAL METHODS 201 (2003); Steven S. Carroll et al., Inhibition of Hepatitis C Virus RNA Replication by 2′-Modified Nucleoside Analogs, 278(14) J. BIOLOGICAL CHEMISTRY 11979 (2003). However, the underlying principles are common to all of these determinations, and are outlined below.
(§2) TaqMan®-Based Assay Protocol:
(§3) Compounds of the present invention were assayed for cell-based anti-HCV activity using the following protocol. Replicon cells were seeded at 5000 cells/well in 96-well collagen I-coated Nunc plates in the presence of the test compound. Various concentrations of test compound, typically in 10 serial 2-fold dilutions, were added to the assay mixture, with the starting concentration ranging from 250 μM to 1 μM. The final concentration of DMSO was 0.5%, fetal bovine serum was 5%, in the assay media. Cells were harvested on day 3 by the addition of 1× cell lysis buffer (Ambion cat #8721). The replicon RNA level was measured using real time PCR (TaqMan® assay). The amplicon was located in 5B. The PCR primers were: 5B.2F, ATGGACAGGCGCCCTGA (SEQ. ID NO. 1); 5B.2R, […] (SEQ. ID NO. 2); the probe sequence was FAM-labeled CACGCCATGCGCTGCGG (SEQ. ID NO. 3). GAPDH RNA was used as endogenous control and was amplified in the same reaction as NS5B (multiplex PCR) using primers and VIC-labeled probe recommended by the manufacturer (PE Applied Biosystem). The real-time […] reactions were run on ABI PRISM 7900HT Sequence Detection System using the following program: 48° C. for 30 minutes, 95° C. for 10 minutes, 40 cycles of 95° C. for 15 sec, 60° C. for 1 minute. The ΔCT values (CT5B-CTGAPDH) were plotted against the concentration of test compound and fitted to the sigmoid dose-response model using XLfit4 (MDL). EC50 was defined as the concentration of inhibitor necessary to achieve ΔCT=1 over the projected baseline; EC90 the concentration necessary to achieve ΔCT=3.2 over the baseline. Alternatively, to quantitate the absolute amount of replicon RNA, a standard curve was established by including serially diluted T7 transcripts of replicon RNA in the Taqman assay. All TaqMan® reagents were from PE Applied Biosystems. Such an assay procedure was described in detail in e.g. Malcolm et al., Antimicrobial Agents and Chemotherapy 50: 1013-1020 (2006).
(§4) HCV replicon EC50 assay data for various replicons and mutants was calculated for selected compounds of the present invention using this method and is provided in the tables above herein.

[2] = tested on: HCV 2b replicon; test: Cell-based HCV replicon assay (TaqMan), genotype 2b replicon; details: Hepatitis C virus, 72 h, read-out: 2b EC90, HCV genotype 2b replicon cells, replicon RNA by real time PCR, day 3; EC90 = concentration for ΔCT=3.2 over baseline
Protocol: as §1, §2, §3, §4

[3] = tested on: HCV 1b replicon; test: Cell-based HCV replicon assay (TaqMan), genotype 1b replicon; details: HCV genotype 1b replicon cells, replicon RNA by real time PCR, day 3, EC90 = concentration for ΔCT=3.2 over baseline
Protocol: as §1, §2, §3, §4

[4] = tested on: HCV 1a Y93H replicon; test: Cell-based HCV replicon assay (TaqMan), 1a Y93H mutant replicon; details: EC90 = concentration for ΔCT=3.2 over baseline
Protocol: as §1, §2, §3, §4

[5] = Hepatitis C virus, 72 h, read-out: 1a Y93H EC90, HCV 1a Y93H mutant replicon cells, replicon RNA by real time PCR, day 3

COC(=O)N[C@H](C(=O)N1CCC[C@H]1c1ncc(-c2ccc(-c3ccc4c(ccc5nc([C@@H]6C[Si](C)(C)CN6C(=O)[C@@H](NC(=O)OC)C6CCOCC6)[nH]c54)c3)cc2)[nH]1)C(C)C [Compound 69]
EC90 ([1]; Hepatitis C virus, 72 h): 0.33 nM | EC90 [2]: 19 nM | EC90 ([3]; Hepatitis C virus, 72 h): 50 pM | EC90 [4, 5]: 118 nM

COC(=O)N[C@H](C(=O)N1CC(F)(F)C[C@H]1c1ncc(-c2ccc(-c3ccc4c(ccc5nc([C@@H]6C[Si](C)(C)CN6C(=O)[C@@H](NC(=O)OC)C(C)C)[nH]c54)c3)cc2)[nH]1)C(C)C [Compound 7]
EC90 ([1]; Hepatitis C virus, 72 h): 0.047 nM | EC90 ([3]; Hepatitis C virus, 72 h): 5 pM | EC90 [4, 5]: 172 nM

COC(=O)N[C@H](C(=O)N1CCC[C@H]1c1ncc(-c2ccc(-c3ccc4c(ccc5nc([C@@H]6C[Si](C)(C)CN6C(=O)C6(NC(=O)OC)CCC6)[nH]c54)c3)cc2)[nH]1)C(C)C [Compound 71]
EC90 ([1]; Hepatitis C virus, 72 h): 10 nM | EC90 [2]: 205 nM | EC90 ([3]; Hepatitis C virus, 72 h): 30 pM | EC90 [4, 5]: 288 nM

COC(=O)N[C@H](C(=O)N1C[Si](C)(C)C[C@H]1c1ncc(-c2ccc(-c3ccc4c(ccc5[nH]c([C@@H]6[C@H]7CC[C@H](C7)N6C(=O)[C@@H](NC(=O)OC)C(C)C)nc54)c3)cc2)[nH]1)C(C)C [Compound 4]
EC90 ([1]; Hepatitis C virus, 72 h): 0.097 nM | EC90 ([3]; Hepatitis C virus, 72 h): 5 pM | EC90 [4, 5]: 333 nM

COC(=O)N[C@@H](CC(C)(C)C)C(=O)N1C[Si](C)(C)C[C@H]1c1nc2ccc3cc(-c4ccc(-c5cnc([C@@H]6CCCN6C(=O)[C@@H](NC(=O)OC)C(C)C)[nH]5)cc4)ccc3c2[nH]1 [Compound 72]
EC90 ([1]; Hepatitis C virus, 72 h): 0.18 nM | EC90 [2]: 114 nM | EC90 ([3]; Hepatitis C virus, 72 h): 20 pM | EC90 [4, 5]: 130 nM

COC(=O)N[C@H](C(=O)N1C[C@H](O)C[C@H]1c1ncc(-c2ccc(-c3ccc4c(ccc5nc([C@@H]6C[Si](C)(C)CN6C(=O)[C@@H](NC(=O)OC)C(C)C)[nH]c54)c3)cc2)[nH]1)C(C)C [Compound 11]
EC90 ([1]; Hepatitis C virus, 72 h): 0.26 nM | EC90 ([3]; Hepatitis C virus, 72 h): 8 pM | EC90 [4, 5]: 152 nM

COC(=O)NC(Cc1cccs1)C(=O)N1C[Si](C)(C)C[C@H]1c1nc2ccc3cc(-c4ccc(-c5cnc([C@@H]6CCCN6C(=O)[C@@H](NC(=O)OC)C(C)C)[nH]5)cc4)ccc3c2[nH]1 (stereo partly shown) [Compound 75]
EC90 ([1]; Hepatitis C virus, 72 h): 3.4 nM | EC90 [2]: 425 nM | EC90 ([3]; Hepatitis C virus, 72 h): 40 pM | EC90 [4, 5]: > 1000 nM

COC(=O)N[C@H](C(=O)N1C[Si](C)(C)C[C@H]1c1nc2ccc3cc(-c4ccc(-c5cnc([C@@H]6C[C@H]7C[C@H]7N6C(=O)[C@@H](NC(=O)OC)C(C)C)[nH]5)cc4)ccc3c2[nH]1)C(C)C [Compound 12]
EC90 [1]: 0.006 nM | EC90 [3]: 1 pM | EC90 ([4]; read-out: 1a Y93H EC90, HCV 1a Y93H mutant replicon cells, replicon RNA by real time PCR, day 3): > 100 nM

COC(=O)N[C@H](C(=O)N1CCC[C@H]1c1ncc(-c2ccc(-c3ccc4c(ccc5nc([C@@H]6C[Si](C)(C)CN6C(=O)[C@@H](NC(=O)OC)C(C)C)[nH]c54)c3)cc2)[nH]1)C(C)C [Compound 5]
EC90 ([1]; Hepatitis C virus, 72 h): 0.012 nM | EC90 ([3]; Hepatitis C virus, 72 h): 6 pM | EC90 [4, 5]: 181 nM

COC(=O)N[C@H](C(=O)N1C[C@H](F)C[C@H]1c1ncc(-c2ccc(-c3ccc4c(ccc5nc([C@@H]6C[Si](C)(C)CN6C(=O)[C@@H](NC(=O)OC)C(C)C)[nH]c54)c3)cc2)[nH]1)C(C)C [Compound 10]
EC90 ([1]; Hepatitis C virus, 72 h): 0.15 nM | EC90 ([3]; Hepatitis C virus, 72 h): 9 pM | EC90 [4, 5]: 92 nM

COC(=O)N[C@H](C(=O)N1CC(F)(F)C[C@H]1c1nc2ccc3cc(-c4ccc5c(ccc6nc([C@@H]7C[Si](C)(C)CN7C(=O)[C@@H](NC(=O)OC)C(C)C)[nH]c65)c4)ccc3c2[nH]1)C(C)C [Compound 9]
EC90 ([1]; Hepatitis C virus, 72 h): 0.02 nM | EC90 ([3]; Hepatitis C virus, 72 h): 7 pM | EC90 [4, 5]: 169 nM

COC(=O)N[C@H](C(=O)N1C[Si](C)(C)C[C@H]1c1ncc(-c2ccc(-c3ccc4c(ccc5nc([C@@H]6CCCN6C(=O)[C@@H](NC(=O)OC)C(C)C)[nH]c54)c3)cc2)[nH]1)C(C)C [Compound 3]
EC90 ([1]; Hepatitis C virus, 72 h): 0.031 nM | EC90 ([3]; Hepatitis C virus, 72 h): 6 pM | EC90 [4, 5]: 280 nM
